Source: US9975853B2, “Tetrahydroisoquinolinone derivatives and their use in the inhibition of the HSP70 protein” (Julius-Maximilians-Universitaet Wuerzburg, priority 2014, dated 2018)

How the values were obtained:
INA-6 = assay: Cell viability assay (annexin V-FITC/propidium iodide, flow cytometry) in INA-6 multiple myeloma cells; format: cell-based, human
Method: The effect of pharmacological Hsp70 inhibition on cell viability was analyzed after 72 hours of treatment in both non-malignant (mononuclear cells from the peripheral blood) and malignant lymphocytes (multiple myeloma cells). The mononuclear cells were separated from the peripheral blood of healthy donors by Ficoll-Hypaque density gradient centrifugation. The human cell line INA-6 represents a well-established model for multiple myeloma. The percentage of viable and apoptotic cell fractions was assessed using an annexin V-FITC/propidium iodide (PI) staining kit (Bender MedSystems, Vienna, Austria) according to manufacturer's instructions. In brief, cells were washed in PBS, incubated for 10 min in 100 ml binding buffer (10 mM HEPES/NaOH, pH 7.4, 140 mM NaCl, 2.5 mM CaCl2) containing 2.5 ml annexin V-FITC mix and 1 mg/ml propidium iodide (PI), subsequently diluted with 100 ml binding buffer and analyzed by flow cytometry (FACSCalibur/CELLQuest; Becton Dickinson, Heidelberg, Germany). Whereas viable cells are negative for both, annexin V-FITC and PI, early apoptotic cells show a positive annexin V-FITC staining, and cells in a late apoptotic stage which lose their membrane integrity additionally incorporate DNA-binding PI. To establish kill curves, concentrations of the tested compounds were titrated, and the measured viable cell fractions were further analyzed using the Prism Calculation Software (GraphPad Software Inc., La Jolla, USA).
In FIG. 2A Western blot analyses of caspases 9 and 3, and the caspase substrate PARP (upper panel), and viability analyses (lower panel) of INA-6 MM cells upon treatment with trans-7b for 24 hours are shown. INA-6 cells were either incubated with DMSO (as a solvent control) or with 0.6 μM of trans-7b, and additionally incubated either with DMSO or the pan-caspase inhibitor Z-VAD-FMK prior to analyses by Western or viability assessment (without Z-VAD-FMK co-treatment) by Annexin V/propidum iodide double staining. For Western analyses INA-6 cell pellets were dissolved in lysis buffer (20 mM HEPES (pH 7.9), 350 mM NaCl, 1 mM MgCl2, 0.5 mM EDTA, 0.1 mM EGTA, 1% NP40, 0.5 mM dithiothreiol (DTT), 1 mM Na3VO4, 0.1 mM PMSF and 1 μg/ml aprotinin). Lysates were cleared by centrifugation, measured by quantitative protein assay (Bio-Rad, München, Germany) and subjected to SDS gel electrophoresis. Proteins were transferred onto nitrocellulose membranes (Schleicher & Schuell, Dassel, Germany), incubated with antibodies specific for caspase 9, caspase 3 or PARP (Cell Signaling Technology, Frankfurt a.Main, Germany) according to standard procedures and visualized with secondary anti-rabbit horseradish peroxidase (HRP)-conjugated antibodies using an enhanced chemoluminescence detection system (ECL, Amersham, Freiburg, Germany). […] Annexin V/propidium iodide (PI) staining was performed using a fluorescein isothiocyanate (FITC) conjugated recombinant human annexin/propidium iodide kit (BenderMedSystems, Vienna, Austria) according to the manufacturer's instructions. INA-6 cells were washed in PBS, incubated for 15 minutes in 100 ml binding buffer (10 mM HEPES/NaOH, pH 7.4, 140 mM NaCl, 2.5 mM CaCl2) containing 2.5 mL annexin V-FITC mix and 1 mg/ml PI and analyzed by flow cytometry (FACSCalibur/CELLQuest; Becton Dickinson, Heidelberg, Germany). Whereas early apoptosis is characterized by positive annexin V-FITC staining reaction, cells in a late apoptotic stage lose their membrane integrity and additionally incorporate PI. Thus, the fraction of viable cells remains negative for both annexin V-FITC and PI. […] Based on the above described experiments also viability analyses of INA-6 in comparison with non-malignant PBMCs were performed choosing a longer incubation time (72 hours) as shown in FIG. 2B or C. Raw data of three independent experiments have been calculated to establish means, standard deviation and dose-effect curves of trans-7b.

[1] = test system: HSP70/HSP90 multi-chaperone client proteins; assay: Western blot analysis of HSP70/HSP90 chaperone-dependent signaling intermediates and substrates in INA-6 cells; format: cell-based, human; details: INA-6, 0.6 μM
Method: Western Blot Analysis. Protein expression levels were determined with Western blotting procedures (M. Chatterjee, et al., Blood 2002, 100, 3311-3318). Following separation by SDS-PAGE, proteins were transferred onto nitrocellulose membranes (Schleicher & Schuell, Dassel, Germany) and stained with antibodies against Hsp72, Hsp73, Hsp90 (all from Enzo Life Science, Lörrach, Germany), AIF, lamin A, caspases 9 and 3, PARP (all from Santa Cruz, Heidelberg, Germany). An anti-α tubulin antibody (Sigma, Deisenhofen, Germany) was employed to assess equal loading. Secondary antibodies used were anti-rat (Enzo Life Science), anti-rabbit and anti-mouse (both from GE Healthcare, Little Chalfont, UK). […] The heat shock proteins HSP72 and HSP73 critically interact with HSP90 in order to mediate an essential chaperone function for a multitude of proteins including various signaling intermediates. According to an established HSP72/73-dependent client protein signature and its role for survival in MM, the proposed anti-HSP72/73 effect of trans-7b in the INA-6 multiple myeloma (MM) cell line model was evaluated. […] Lysates were cleared by centrifugation, measured by quantitative protein assay (Bio-Rad, München, Germany) and subjected to SDS gel electrophoresis. […]

For `COc1ccc(C2C(C(=O)Nc3cccc(C)n3)c3ccccc3C(=O)N2c2ccccc2)cc1` (stereo not drawn) [trans-7b, trans-3-(4-Methoxyphenyl)-N-(6-methylpyridin-2-yl)-1-oxo-2-phenyl-1,2,3,4-tetrahydroisoquinoline-4-carboxamide], the “viability of INA-6 cells in comparison with the DMSO control (100%)” value (INA-6; 0.6 μM, 24 hours, Annexin V/propidium iodide) was “drastically decreased”, the “sensitivity of INA-6 tumor cells (viability, dose-effect curves)” value (INA-6; 72 hours, three independent experiments) was “highly sensitive (in a low micromolar range)” and the EC50 (INA-6; Homo sapiens, INA-6, 72 h, INA-6 multiple myeloma cells, 72 hours of treatment, viable cell fraction, mean of at least three determinations, read-out: INA-6 EC50(±sdv)) was 410 nM. The “AKT, C-Raf, RIP, IKKα and MEK levels” value [1] was “strongly downregulated” and the “p-MEK, p-ERK and pSTAT3 levels” value [1] was “downregulated”.
